Where a name gives a salt, the structure may show the parent alone.

The target of assay [1] is T1, Adrenergic β2 (H292 cells) (Homo sapiens, UniProt P07550).
T1 construct: endogenous in cells; host or cells: H292 cells
Briefly: Assay for Adrenergic β2 Mediated cAMP Production (concentration response, AlphaScreen cAMP detection). The format is cell-based. As to conditions: for EC50: cAMP production, 60 minutes at room temperature, 300 μM rolipram, read-out: β2 pEC50 (converted); for β2 Intrinsic activity: fraction relative to the maximum activity determined for formoterol. Here is the method:
Assay for Adrenergic β2 Mediated Camp Production
H292 cells are grown in 225 cm2 flasks incubator at 37° C., 5% CO2 in RPMI medium containing 10% (v/v) FBS (foetal bovine serum) and 2 mM L-glutamine.
Adherent H292 cells are removed from tissue culture flasks by treatment with Accutase™ cell detachment solution for 15 minutes. Flasks are incubated for 15 minutes in a humidified incubator at 37° C., 5% CO2. Detached cells are re-suspended in RPMI media (containing 10% (v/v) FBS and 2 mM L-glutamine) at 0.1×10^6 cells per mL. 10000 cells in 100 μL are added to each well of a tissue-culture-treated 96-well plate and the cells incubated overnight in a humidified incubator at 37° C., 5% CO2. The culture media is removed and cells are washed twice with 100 μL assay buffer and replaced with 50 μL assay buffer (HBSS solution containing 10 mM HEPES pH7.4 and 5 mM glucose). Cells are rested at room temperature for 20 minutes after which time 25 μL of rolipram (1.2 mM made up in assay buffer containing 2.4% (v/v) dimethylsulphoxide) is added. Cells are incubated with rolipram for 10 minutes after which time test compounds are added and the cells are incubated for 60 minutes at room temperature. The final rolipram concentration in the assay is 300 μM and final vehicle concentration is 1% (v/v) dimethylsulphoxide. The reaction is stopped by removing supernatants, washing once with 100 μL assay buffer and replacing with 50 μL lysis buffer. The cell monolayer is frozen at −80° C. for 30 minutes (or overnight).
AlphaScreen™ cAMP Detection
The concentration of cAMP (cyclic adenosine monophosphate) in the cell lysate is determined using AlphaScreen™ methodology. The frozen cell plate is thawed for 20 minutes on a plate shaker then 10 μL of the cell lysate is transferred to a 96-well white plate. 40 μL of mixed AlphaScreen™ detection beads pre-incubated with biotinylated cAMP, is added to each well and the plate incubated at room temperature for 3 hours in the dark. The AlphaScreen™ signal is measured using an EnVision spectrophotometer (Perkin-Elmer Inc.) with the recommended manufacturer's settings. cAMP concentrations are determined by reference to a calibration curve determined in the same experiment using standard cAMP concentrations. Concentration response curves for agonists are constructed and data is fitted to a four parameter logistic equation to determine both the pEC50 and Intrinsic Activity. Intrinsic Activity is expressed as a fraction relative to the maximum activity determined for formoterol in each experiment.

The target of assay [2] is T2, human muscarinic acetylcholine M3 receptor (M3-ACh) (Homo sapiens, UniProt P20309).
T2 construct: expressed in transfected cells; host or cells: CHO-K1 (Chinese Hamster Ovary) cell membranes
T2 sequence (P20309 whole entry): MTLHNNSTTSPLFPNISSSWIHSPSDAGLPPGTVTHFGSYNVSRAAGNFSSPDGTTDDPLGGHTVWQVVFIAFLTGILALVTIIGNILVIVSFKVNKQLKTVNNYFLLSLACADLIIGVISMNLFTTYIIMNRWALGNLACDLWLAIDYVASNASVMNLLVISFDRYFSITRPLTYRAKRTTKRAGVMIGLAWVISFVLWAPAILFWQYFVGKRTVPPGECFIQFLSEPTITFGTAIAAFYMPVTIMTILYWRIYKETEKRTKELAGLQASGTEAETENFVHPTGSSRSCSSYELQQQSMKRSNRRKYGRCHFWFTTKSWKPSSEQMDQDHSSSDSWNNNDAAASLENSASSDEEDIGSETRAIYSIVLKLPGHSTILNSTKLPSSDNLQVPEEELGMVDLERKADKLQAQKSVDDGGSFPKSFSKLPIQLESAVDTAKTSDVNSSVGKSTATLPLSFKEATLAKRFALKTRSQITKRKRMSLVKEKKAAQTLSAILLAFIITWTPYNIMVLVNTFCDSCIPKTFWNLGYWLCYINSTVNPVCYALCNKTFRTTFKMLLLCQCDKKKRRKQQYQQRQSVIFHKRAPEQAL
Briefly: Muscarinic 3 Receptor Binding Assay ([3H]NMS competition, SPA). To be noted: [3H]NMS 0.1 nM, CHO-K1 cell membranes, 16 hours at room temperature; read-out: M3 pIC50 (converted). Here is the method: Muscarinic 3 Receptor Binding Assay
The affinity (pIC50) of compounds binding to the M3 receptor is determined by competition binding of [^3H]N-methyl scopolamine (NMS) to CHO-K1 (Chinese Hamster Ovary) cell membranes expressing the human muscarinic acetylcholine M3 receptor (M3-ACh) in a scintillation proximity assay (SPA) format.
SPA beads are precoated with membranes and then incubated at 2 mg of beads per well with serial dilutions of compounds of the invention, [^3H]NMS at 0.1 nM, quarter Kd (experimentally determined dissociation constant) and assay buffer (20 mM HEPES pH 7.4 containing 5 mM MgCl2). The assay is conducted in a final volume of 200 μL, in the presence of 1% (v/v) dimethyl sulphoxide (DMSO). Total binding of [^3H]NMS is determined in the absence of competing compound and non-specific binding of [^3H]NMS is determined in the presence of 1 μM atropine. The plates are incubated for 16 hours at room temperature and then read on Wallac Microbeta™ using a normalised ^3H protocol. The pIC50, defined as the negative logarithm of the molar concentration of compound required for 50% reduction in specific [^3H]-NMS binding, is determined.

T1 sequence (P07550 whole entry): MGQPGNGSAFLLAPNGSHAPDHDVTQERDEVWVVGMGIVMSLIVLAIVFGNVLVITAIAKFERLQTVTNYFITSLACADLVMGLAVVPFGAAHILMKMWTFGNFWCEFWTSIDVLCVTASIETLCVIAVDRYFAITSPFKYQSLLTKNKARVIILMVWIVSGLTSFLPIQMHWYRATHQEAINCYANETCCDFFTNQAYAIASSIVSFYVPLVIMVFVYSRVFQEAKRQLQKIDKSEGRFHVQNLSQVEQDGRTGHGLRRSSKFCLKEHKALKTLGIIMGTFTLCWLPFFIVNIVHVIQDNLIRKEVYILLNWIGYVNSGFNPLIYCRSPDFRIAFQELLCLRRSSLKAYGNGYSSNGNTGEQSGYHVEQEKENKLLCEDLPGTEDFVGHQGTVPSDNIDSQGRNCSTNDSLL

For `CC(C)c1nc(C(=O)N2CCOC3(CCN(Cc4cc(Cl)cc(CCNC[C@H](O)c5ccc(O)c6[nH]c(=O)sc56)c4)CC3)C2)cs1` [Example 52, (R)-7-(2-(3-Chloro-5-((4-(2-isopropylthiazole-4-carbonyl)-1-oxa-4,9-diazaspiro[5.5]undecan-9-yl)methyl)phenethylamino)-1-hydroxyethyl)-4-hydroxybenzo[d]thiazol-2(3H)-one ditrifluoroacetate], in assay [1], the EC50 was 5.01 nM and the “β2 Intrinsic activity” value is 0.9. Also, the IC50 in assay [2] was 7.94 nM.

As for `O=C(c1csc(-c2ccccc2)n1)N1CCOC2(CCN(CCOc3ccc(CNC[C@H](O)c4ccc(O)c5[nH]c(=O)sc45)cc3)CC2)C1` [Example 112, (R)-4-Hydroxy-7-(1-hydroxy-2-(4-(2-(4-(2-phenylthiazole-4-carbonyl)-1-oxa-4,9-diazaspiro[5.5]undecan-9-yl)ethoxy)benzylamino)ethyl)benzo[d]thiazol-2(3H)-one ditrifluoroacetate], in assay [1], the EC50 was 126 nM and the “β2 Intrinsic activity” value turned out to be 0.9. The IC50 in assay [2] is 501 nM.

As for `CC(C)c1cc(C(=O)N2CCOC3(CCN(Cc4cccc(CCNC[C@H](O)c5ccc(O)c6[nH]c(=O)sc56)c4F)CC3)C2)cs1` [Example 70, (R)-7-(2-(2-Fluoro-3-((4-(5-isopropylthiophene-3-carbonyl)-1-oxa-4,9-diazaspiro[5.5]undecan-9-yl)methyl)phenethylamino)-1-hydroxyethyl)-4-hydroxybenzo[d]thiazol-2(3H)-one ditrifluoroacetate], in assay [1], the EC50 is 7.94 nM and the “β2 Intrinsic activity” value is given as 0.8. The IC50 in assay [2] was 3.16 nM.

`CC(C)c1cc(C(=O)N2CCOC3(CCN(Cc4cccc(CCNC[C@H](O)c5ccc(O)c6[nH]c(=O)sc56)c4)CC3)C2)cs1` [Example 82, (R)-4-Hydroxy-7-(1-hydroxy-2-(3-((4-(5-isopropylthiophene-3-carbonyl)-1-oxa-4,9-diazaspiro[5.5]undecan-9-yl)methyl)phenethylamino)ethyl)benzo[d]thiazol-2(3H)-one ditrifluoroacetate]: in assay [1], the EC50 was 3.98 nM and the “β2 Intrinsic activity” value amounted to 0.9. The IC50 in assay [2] is 0.398 nM.

For `O=C(c1ccc2sccc2c1)N1CCOC2(CCN(Cc3cccc(CCNC[C@H](O)c4ccc(O)c5[nH]c(=O)sc45)c3F)CC2)C1` [Example 68, (R)-7-(2-(3-((4-(Benzo[b]thiophene-5-carbonyl)-1-oxa-4,9-diazaspiro[5.5]undecan-9-yl)methyl)-2-fluorophenethylamino)-1-hydroxyethyl)-4-hydroxybenzo[d]thiazol-2(3H)-one ditrifluoroacetate], in assay [1], the EC50 was 6.31 nM and the “β2 Intrinsic activity” value is recorded as 0.8. Besides, in assay [2], the IC50 is 25.1 nM.

As to `CC(C)c1csc(C(=O)N2CCOC3(CCN(Cc4cc(F)cc(CCNC[C@H](O)c5ccc(O)c6[nH]c(=O)sc56)c4)CC3)C2)n1` [Example 53, (R)-7-(2-(3-Fluoro-5-((4-(4-isopropylthiazole-2-carbonyl)-1-oxa-4,9-diazaspiro[5.5]undecan-9-yl)methyl)phenethylamino)-1-hydroxyethyl)-4-hydroxybenzo[d]thiazol-2(3H)-one ditrifluoroacetate], in assay [1], the EC50 is 10 nM and the “β2 Intrinsic activity” value stood at 1. For the same molecule, the IC50 in assay [2] was 12.6 nM.

Consider `Cc1nc(C(=O)N2CCOC3(CCN(CCc4ccc(CCNC[C@H](O)c5ccc(O)c6[nH]c(=O)sc56)cc4)CC3)C2)cs1` [Example 5, (R)-4-Hydroxy-7-(1-hydroxy-2-(4-(2-(4-(2-methylthiazole-4-carbonyl)-1-oxa-4,9-diazaspiro[5.5]undecan-9-yl)ethyl)phenethylamino)ethyl)benzo[d]thiazol-2(3H)-one ditrifluoroacetate], for which, in assay [1], the EC50 is 79.4 nM and the “β2 Intrinsic activity” value came to 0.9. In addition, the IC50 in assay [2] was 2.51 nM.

As for `CC(C)c1nc(C(=O)N2CCOC3(CCN(Cc4cccc(OCCNC[C@H](O)c5ccc(O)c6[nH]c(=O)sc56)c4)CC3)C2)cs1` [Example 64, (R)-4-Hydroxy-7-(1-hydroxy-2-(2-(3-((4-(2-isopropylthiazole-4-carbonyl)-1-oxa-4,9-diazaspiro[5.5]undecan-9-yl)methyl)phenoxy)ethylamino)ethyl)benzo[d]thiazol-2(3H)-one ditrifluoroacetate], in assay [1], the EC50 is 50.1 nM and the “β2 Intrinsic activity” value came to 0.9. For the same molecule, the IC50 in assay [2] was 0.2 nM.

Consider `Cc1ccc(C(=O)N2CCOC3(CCN(Cc4cccc(OCCNC[C@H](O)c5ccc(O)c6[nH]c(=O)sc56)c4)CC3)C2)s1` [Example 38, (R)-4-Hydroxy-7-(1-hydroxy-2-(2-(3-((4-(5-methylthiophene-2-carbonyl)-1-oxa-4,9-diazaspiro[5.5]undecan-9-yl)methyl)phenoxy)ethylamino)ethyl)benzo[d]thiazol-2(3H)-one ditrifluoroacetate], for which, in assay [1], the EC50 is 20 nM and the “β2 Intrinsic activity” value amounted to 0.8. Moreover, the IC50 in assay [2] was 2.51 nM.

As for `CC(C)(C)c1nc(C(=O)N2CCOC3(CCN(Cc4cc(F)cc(CCNC[C@H](O)c5ccc(O)c6[nH]c(=O)sc56)c4)CC3)C2)cs1` [Example 50, (R)-7-(2-(3-((4-(2-tert-Butylthiazole-4-carbonyl)-1-oxa-4,9-diazaspiro[5.5]undecan-9-yl)methyl)-5-fluorophenethylamino)-1-hydroxyethyl)-4-hydroxybenzo[d]thiazol-2(3H)-one ditrifluoroacetate], in assay [1], the EC50 is 7.94 nM and the “β2 Intrinsic activity” value is 0.9. The IC50 in assay [2] is 39.8 nM.

Consider `CC(C)(C)c1nc(C(=O)N2CCOC3(CCN(Cc4cc(CCNC[C@H](O)c5ccc(O)c6[nH]c(=O)sc56)cs4)CC3)C2)cs1` [Example 43, (R)-7-(2-(2-(5-((4-(2-tert-Butylthiazole-4-carbonyl)-1-oxa-4,9-diazaspiro[5.5]undecan-9-yl)methyl)thiophen-3-yl)ethylamino)-1-hydroxyethyl)-4-hydroxybenzo[d]thiazol-2(3H)-one ditrifluoroacetate], for which, in assay [1], the EC50 was 5.01 nM and the “β2 Intrinsic activity” value is 0.8. Also, the IC50 in assay [2] was 39.8 nM.

Turning to `O=C(c1csc(-c2ccccc2)n1)N1CCOC2(CCN(CCCCCCCCCNC[C@H](O)c3ccc(O)c4[nH]c(=O)sc34)CC2)C1` [Example 113, (R)-4-Hydroxy-7-(1-hydroxy-2-(9-(4-(2-phenylthiazole-4-carbonyl)-1-oxa-4,9-diazaspiro[5.5]undecan-9-yl)nonylamino)ethyl)benzo[d]thiazol-2(3H)-one formate], in assay [1], the EC50 is 20 nM and the “β2 Intrinsic activity” value is on record as 0.8. Further, the IC50 in assay [2] is 20 nM.

For the molecule `CC(C)c1cc(C(=O)N2CCOC3(CCN(Cc4cc(CCNC[C@H](O)c5ccc(O)c6[nH]c(=O)sc56)cs4)CC3)C2)cs1` [Example 264, (R)-4-Hydroxy-7-(1-hydroxy-2-(2-(5-((4-(5-isopropylthiophene-3-carbonyl)-1-oxa-4,9-diazaspiro[5.5]undecan-9-yl)methyl)thiophen-3-yl)ethylamino)ethyl)benzo[d]thiazol-2(3H)-one ditrifluoroacetate], in assay [1], the EC50 is 20 nM and the “β2 Intrinsic activity” value is on record as 1. Further, the IC50 in assay [2] was 7.94 nM.
